According to ChEMBL document CHEMBL5465560, “Selectivity Literature for EUbOPEN Chemogenomic Library” (2024):

Key:
[1] = target: Hepatocyte growth factor receptor (Homo sapiens, UniProt P08581); assay: Selectivity interaction (Kinase panel (literature)) EUB0001199aCl MET; conditions: at 1 µM
[2] = target: MAP kinase-interacting serine/threonine-protein kinase 1 (Homo sapiens) (UniProt Q9BUB5); assay: Selectivity interaction (Kinase panel (literature)) EUB0001199aCl MKNK1; conditions: at 1 µM
[3] = target: Phosphatidylinositol 4-kinase beta (Homo sapiens, UniProt Q9UBF8); assay: Selectivity interaction (ActivX KiNativ screen (kinase selectivity in THP-1 cell lysates)) EUB0000639a PI4KB; assay type: subcellular; conditions: lysate, at 1 µM
SRSF protein kinase 1 = SRSF protein kinase 1 (Homo sapiens, UniProt Q96SB4); assay: Selectivity interaction (ActivX KiNativ screen (kinase selectivity in THP-1 cell lysates)) EUB0000639a SRPK1; assay type: subcellular; conditions: lysate, at 0.04 µM
[4] = target: T1, Serine/threonine-protein kinase Nek9 (Homo sapiens) (UniProt Q8TD19); assay: Selectivity interaction (Ambit KINOMEscan and KiNATiv profiling in Jurkat cells) EUB0000090b NEK9; assay type: cell-based; conditions: at 1 µM
T1 sequence (whole entry): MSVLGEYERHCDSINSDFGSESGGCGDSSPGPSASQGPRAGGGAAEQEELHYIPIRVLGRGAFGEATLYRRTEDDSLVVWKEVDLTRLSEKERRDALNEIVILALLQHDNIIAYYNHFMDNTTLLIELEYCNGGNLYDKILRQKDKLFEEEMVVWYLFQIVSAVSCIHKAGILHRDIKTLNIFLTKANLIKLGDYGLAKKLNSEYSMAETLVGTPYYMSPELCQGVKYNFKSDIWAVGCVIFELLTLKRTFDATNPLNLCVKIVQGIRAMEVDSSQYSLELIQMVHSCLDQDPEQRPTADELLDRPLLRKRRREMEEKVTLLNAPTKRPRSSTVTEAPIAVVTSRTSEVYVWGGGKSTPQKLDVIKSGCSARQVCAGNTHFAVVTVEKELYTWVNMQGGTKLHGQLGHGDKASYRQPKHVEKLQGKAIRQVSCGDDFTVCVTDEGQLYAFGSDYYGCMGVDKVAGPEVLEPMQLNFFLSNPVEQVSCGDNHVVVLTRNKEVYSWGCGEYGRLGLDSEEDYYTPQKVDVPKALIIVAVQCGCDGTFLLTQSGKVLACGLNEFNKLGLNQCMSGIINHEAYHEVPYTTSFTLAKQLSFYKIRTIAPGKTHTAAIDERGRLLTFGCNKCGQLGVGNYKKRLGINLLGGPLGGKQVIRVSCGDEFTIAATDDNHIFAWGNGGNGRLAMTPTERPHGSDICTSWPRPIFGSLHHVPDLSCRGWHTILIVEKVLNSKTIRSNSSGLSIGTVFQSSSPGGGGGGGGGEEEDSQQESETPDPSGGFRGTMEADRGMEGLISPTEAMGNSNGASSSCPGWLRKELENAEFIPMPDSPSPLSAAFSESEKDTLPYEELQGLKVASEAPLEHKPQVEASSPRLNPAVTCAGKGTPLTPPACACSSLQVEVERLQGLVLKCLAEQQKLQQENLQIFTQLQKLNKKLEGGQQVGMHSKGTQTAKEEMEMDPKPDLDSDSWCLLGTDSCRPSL

[5] = target: Platelet-derived growth factor receptor beta (Homo sapiens, UniProt P09619); assay: Selectivity interaction (Ambit KINOMEscan and KiNATiv profiling in Jurkat cells) EUB0000090b PDGFRB; assay type: cell-based; conditions: at 1 µM
[6] = target: Serine/threonine-protein kinase PAK 6 (Homo sapiens) (UniProt Q9NQU5); assay: Selectivity interaction (KinomeScan (DiscoverX)) EUB0000045b PAK6; conditions: at 1 µM
[7] = target: T2, Serine/threonine-protein kinase STK11 (Homo sapiens) (UniProt Q15831); assay: Selectivity interaction (ActivX KiNativ screen (ex vivo kinase selectivity in human PBMCs)) EUB0001619a STK11; assay type: cell-based; conditions: PBMC, at 1 µM
T2 sequence (whole entry): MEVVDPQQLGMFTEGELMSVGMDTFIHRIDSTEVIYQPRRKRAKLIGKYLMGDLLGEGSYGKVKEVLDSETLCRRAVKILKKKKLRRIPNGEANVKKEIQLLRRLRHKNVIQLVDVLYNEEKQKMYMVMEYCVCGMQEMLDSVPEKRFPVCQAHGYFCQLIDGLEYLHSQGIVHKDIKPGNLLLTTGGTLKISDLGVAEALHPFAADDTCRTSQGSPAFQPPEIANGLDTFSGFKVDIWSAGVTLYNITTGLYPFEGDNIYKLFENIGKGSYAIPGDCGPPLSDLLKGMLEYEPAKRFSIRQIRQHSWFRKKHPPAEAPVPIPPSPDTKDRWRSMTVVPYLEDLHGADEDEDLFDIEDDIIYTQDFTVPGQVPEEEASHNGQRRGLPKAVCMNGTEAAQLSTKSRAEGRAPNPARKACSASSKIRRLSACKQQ

[8] = target: T3, Serine/threonine-protein kinase Nek3 (Homo sapiens) (UniProt P51956); assay: Selectivity interaction (KinomeScan (DiscoverX)) EUB0001619a NEK3; conditions: at 1 µM
T3 sequence (whole entry): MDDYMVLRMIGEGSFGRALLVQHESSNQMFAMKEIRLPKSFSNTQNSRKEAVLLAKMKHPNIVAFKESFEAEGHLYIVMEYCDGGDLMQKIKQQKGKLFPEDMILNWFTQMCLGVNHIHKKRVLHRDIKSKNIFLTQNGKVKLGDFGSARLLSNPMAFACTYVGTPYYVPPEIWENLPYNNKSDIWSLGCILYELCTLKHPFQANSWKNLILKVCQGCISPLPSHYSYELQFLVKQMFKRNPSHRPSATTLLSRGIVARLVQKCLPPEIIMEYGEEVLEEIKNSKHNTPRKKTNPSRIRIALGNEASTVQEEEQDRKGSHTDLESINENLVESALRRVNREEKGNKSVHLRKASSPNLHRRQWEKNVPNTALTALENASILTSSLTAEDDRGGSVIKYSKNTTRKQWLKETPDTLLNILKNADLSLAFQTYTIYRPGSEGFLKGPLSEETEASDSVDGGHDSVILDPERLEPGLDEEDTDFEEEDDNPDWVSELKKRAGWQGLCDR

[9] = target: T4, Dual specificity mitogen-activated protein kinase kinase 3 (Homo sapiens) (UniProt P46734); assay: Selectivity interaction (KinomeScan (DiscoverX)) EUB0000655a MAP2K3; conditions: at 10 µM
T4 sequence (whole entry): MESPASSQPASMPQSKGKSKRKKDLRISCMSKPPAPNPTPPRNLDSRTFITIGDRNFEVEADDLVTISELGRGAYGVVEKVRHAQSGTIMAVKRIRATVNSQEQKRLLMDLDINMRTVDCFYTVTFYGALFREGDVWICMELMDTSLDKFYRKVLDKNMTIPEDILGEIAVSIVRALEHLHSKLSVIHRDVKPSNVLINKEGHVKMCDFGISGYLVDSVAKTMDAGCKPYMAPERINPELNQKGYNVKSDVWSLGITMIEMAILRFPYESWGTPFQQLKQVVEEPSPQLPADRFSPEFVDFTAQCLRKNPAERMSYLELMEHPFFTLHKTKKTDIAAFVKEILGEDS

[10] = target: Phosphatidylinositol 4,5-bisphosphate 3-kinase catalytic subunit alpha isoform (Homo sapiens) (UniProt P42336); conditions: at 10 µM
Sequence of Phosphatidylinositol 4,5-bisphosphate 3-kinase catalytic subunit alpha isoform (Homo sapiens) (P42336 whole entry, canonical isoform): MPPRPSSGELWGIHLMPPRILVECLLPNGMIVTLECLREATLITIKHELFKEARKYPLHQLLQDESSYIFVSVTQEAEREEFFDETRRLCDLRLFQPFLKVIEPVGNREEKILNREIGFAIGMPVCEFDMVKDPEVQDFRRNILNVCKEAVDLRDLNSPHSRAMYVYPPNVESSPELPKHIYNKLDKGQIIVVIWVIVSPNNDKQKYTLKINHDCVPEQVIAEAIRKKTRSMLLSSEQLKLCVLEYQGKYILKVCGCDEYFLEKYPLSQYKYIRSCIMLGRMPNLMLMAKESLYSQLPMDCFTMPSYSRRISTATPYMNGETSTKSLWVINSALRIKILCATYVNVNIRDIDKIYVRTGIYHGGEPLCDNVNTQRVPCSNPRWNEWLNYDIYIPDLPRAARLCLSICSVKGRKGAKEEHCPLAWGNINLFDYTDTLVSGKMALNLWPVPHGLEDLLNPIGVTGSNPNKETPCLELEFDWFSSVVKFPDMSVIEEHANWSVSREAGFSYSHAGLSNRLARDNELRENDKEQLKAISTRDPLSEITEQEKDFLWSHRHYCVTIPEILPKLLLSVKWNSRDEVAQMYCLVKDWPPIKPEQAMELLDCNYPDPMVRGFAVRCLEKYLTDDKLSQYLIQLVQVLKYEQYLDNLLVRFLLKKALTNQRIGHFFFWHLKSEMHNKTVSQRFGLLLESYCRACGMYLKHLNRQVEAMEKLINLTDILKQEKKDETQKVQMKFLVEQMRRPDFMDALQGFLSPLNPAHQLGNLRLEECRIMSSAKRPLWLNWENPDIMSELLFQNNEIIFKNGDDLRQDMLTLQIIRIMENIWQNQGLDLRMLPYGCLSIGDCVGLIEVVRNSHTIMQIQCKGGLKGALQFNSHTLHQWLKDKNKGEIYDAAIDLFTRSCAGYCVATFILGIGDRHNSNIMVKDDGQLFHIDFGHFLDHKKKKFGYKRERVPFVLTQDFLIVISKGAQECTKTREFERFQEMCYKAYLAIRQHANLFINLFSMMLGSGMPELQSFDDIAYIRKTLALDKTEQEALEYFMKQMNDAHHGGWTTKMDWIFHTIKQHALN

Sequence of Platelet-derived growth factor receptor beta (P09619 whole entry): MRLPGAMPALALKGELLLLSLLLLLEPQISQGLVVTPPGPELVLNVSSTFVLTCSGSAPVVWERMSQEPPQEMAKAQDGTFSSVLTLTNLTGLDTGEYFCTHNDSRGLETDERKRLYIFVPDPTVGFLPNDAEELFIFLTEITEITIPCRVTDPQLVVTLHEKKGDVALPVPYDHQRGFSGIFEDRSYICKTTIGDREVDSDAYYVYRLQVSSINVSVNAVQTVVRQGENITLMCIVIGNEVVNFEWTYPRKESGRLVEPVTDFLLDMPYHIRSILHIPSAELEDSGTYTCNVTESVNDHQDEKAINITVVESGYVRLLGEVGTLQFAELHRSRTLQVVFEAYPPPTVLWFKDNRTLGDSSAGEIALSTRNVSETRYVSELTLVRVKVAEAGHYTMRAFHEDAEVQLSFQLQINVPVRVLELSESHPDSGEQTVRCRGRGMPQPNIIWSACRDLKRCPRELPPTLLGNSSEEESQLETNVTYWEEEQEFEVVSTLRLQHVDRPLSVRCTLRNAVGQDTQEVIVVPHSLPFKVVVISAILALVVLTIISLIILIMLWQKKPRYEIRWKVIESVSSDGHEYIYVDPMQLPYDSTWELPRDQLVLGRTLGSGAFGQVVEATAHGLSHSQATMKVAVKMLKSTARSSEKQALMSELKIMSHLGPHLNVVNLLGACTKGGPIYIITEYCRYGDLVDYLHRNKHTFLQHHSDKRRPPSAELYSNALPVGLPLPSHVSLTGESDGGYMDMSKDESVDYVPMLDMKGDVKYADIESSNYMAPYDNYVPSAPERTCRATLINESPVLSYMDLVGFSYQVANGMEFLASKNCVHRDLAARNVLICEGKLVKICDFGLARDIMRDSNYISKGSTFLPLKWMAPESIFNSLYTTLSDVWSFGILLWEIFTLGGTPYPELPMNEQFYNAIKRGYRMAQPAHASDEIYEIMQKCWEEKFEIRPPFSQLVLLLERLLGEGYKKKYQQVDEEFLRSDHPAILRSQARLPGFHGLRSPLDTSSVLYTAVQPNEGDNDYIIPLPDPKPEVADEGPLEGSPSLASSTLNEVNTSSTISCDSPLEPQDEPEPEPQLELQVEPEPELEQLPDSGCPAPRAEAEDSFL
Sequence of Phosphatidylinositol 4-kinase beta (Q9UBF8 2-816 limits assumed): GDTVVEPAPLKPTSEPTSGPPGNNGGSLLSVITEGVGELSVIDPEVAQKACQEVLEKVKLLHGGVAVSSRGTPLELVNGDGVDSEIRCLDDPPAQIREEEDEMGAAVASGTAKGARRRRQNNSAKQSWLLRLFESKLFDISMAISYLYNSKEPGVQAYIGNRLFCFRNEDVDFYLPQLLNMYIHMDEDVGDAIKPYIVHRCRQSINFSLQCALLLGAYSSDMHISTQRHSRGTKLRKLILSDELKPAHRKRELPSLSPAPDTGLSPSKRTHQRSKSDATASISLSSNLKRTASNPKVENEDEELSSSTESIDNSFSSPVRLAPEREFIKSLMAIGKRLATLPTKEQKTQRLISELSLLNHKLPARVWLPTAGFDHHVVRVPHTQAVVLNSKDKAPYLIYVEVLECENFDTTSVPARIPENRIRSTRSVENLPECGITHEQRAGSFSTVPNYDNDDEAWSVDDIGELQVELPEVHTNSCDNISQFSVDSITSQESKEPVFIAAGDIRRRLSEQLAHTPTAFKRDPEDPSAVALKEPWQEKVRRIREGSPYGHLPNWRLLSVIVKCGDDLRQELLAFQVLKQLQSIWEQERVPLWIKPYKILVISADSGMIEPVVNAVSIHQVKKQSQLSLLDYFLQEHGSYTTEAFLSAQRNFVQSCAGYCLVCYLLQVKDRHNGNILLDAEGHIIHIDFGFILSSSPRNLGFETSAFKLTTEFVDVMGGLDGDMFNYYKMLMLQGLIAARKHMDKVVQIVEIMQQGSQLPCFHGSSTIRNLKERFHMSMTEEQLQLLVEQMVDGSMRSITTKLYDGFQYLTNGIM
Sequence of Hepatocyte growth factor receptor (P08581 whole entry): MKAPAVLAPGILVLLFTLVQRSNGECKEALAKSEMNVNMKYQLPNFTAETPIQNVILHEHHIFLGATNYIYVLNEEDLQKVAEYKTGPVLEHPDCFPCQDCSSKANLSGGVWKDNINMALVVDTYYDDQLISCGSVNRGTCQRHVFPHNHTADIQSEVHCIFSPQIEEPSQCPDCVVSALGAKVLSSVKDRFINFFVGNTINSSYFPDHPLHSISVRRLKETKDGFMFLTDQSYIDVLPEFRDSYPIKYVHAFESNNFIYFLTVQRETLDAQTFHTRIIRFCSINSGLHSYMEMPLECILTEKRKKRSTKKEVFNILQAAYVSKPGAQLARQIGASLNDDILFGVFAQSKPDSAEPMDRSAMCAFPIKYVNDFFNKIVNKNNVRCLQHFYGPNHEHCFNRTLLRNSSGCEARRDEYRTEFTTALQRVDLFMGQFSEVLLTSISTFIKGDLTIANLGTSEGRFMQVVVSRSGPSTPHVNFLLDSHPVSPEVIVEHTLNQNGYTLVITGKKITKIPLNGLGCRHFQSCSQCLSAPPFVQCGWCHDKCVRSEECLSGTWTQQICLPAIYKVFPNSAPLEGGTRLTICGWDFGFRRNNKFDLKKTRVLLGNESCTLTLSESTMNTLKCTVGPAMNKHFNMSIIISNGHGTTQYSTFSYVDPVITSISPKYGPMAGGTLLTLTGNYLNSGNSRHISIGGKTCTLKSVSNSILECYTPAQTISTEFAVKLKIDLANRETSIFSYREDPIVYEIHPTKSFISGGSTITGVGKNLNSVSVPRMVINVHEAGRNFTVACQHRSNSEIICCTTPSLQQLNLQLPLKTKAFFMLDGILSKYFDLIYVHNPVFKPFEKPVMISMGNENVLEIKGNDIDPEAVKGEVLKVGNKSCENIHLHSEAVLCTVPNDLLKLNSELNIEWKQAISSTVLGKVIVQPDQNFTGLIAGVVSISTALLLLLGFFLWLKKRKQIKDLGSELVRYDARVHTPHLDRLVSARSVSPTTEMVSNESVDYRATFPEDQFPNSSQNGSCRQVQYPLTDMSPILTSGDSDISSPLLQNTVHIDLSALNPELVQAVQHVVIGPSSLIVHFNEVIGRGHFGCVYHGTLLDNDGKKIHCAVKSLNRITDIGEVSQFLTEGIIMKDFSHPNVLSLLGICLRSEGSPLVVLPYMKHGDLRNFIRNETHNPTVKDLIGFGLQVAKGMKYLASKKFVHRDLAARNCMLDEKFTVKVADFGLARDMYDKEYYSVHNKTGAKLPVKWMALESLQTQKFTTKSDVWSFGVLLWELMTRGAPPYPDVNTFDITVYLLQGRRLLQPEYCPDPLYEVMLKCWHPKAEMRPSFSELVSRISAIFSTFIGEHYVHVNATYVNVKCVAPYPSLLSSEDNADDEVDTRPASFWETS
Sequence of Serine/threonine-protein kinase PAK 6 (Homo sapiens) (Q9NQU5 whole entry, looked up): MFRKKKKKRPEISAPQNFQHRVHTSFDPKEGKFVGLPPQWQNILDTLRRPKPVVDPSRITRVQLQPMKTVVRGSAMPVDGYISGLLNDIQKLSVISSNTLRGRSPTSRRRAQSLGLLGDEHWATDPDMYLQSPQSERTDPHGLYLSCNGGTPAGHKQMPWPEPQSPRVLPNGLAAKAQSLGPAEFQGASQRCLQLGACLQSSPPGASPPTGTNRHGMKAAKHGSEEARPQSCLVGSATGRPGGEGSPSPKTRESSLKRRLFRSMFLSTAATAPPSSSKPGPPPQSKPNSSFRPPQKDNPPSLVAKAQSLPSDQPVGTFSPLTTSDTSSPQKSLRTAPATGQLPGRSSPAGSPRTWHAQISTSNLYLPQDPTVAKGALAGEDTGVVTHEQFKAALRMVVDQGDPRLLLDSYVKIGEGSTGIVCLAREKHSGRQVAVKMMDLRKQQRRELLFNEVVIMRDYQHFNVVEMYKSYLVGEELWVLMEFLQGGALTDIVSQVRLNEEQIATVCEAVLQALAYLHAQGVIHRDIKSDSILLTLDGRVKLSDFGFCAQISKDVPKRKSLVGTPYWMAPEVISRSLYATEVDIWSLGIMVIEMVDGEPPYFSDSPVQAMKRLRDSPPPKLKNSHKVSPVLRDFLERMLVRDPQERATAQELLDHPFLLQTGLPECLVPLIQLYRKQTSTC

SMILES: CN1Cc2nccc(-c3cn(C)nc3-c3ccc(F)cc3)c2C1=O
- % of inhibition [1]: 10%
- % of inhibition [2]: -1%

SMILES: CC[C@@H]1[C@H](F)C(=O)N[C@@H]1COc1nccc2cc(C(N)=O)c(OC)cc12 [ZIMLOVISERTIB]
- % of inhibition [3]: -19.1%
- % of inhibition (SRSF protein kinase 1): 6%

SMILES: CN(C)C/C=C/C(=O)Nc1ccc(C(=O)N2CCCC(Nc3ncc(Cl)c(-c4c[nH]c5ccccc45)n3)C2)cc1 (stereo unspecified)
- % of control [4]: 100%
- % of control [5]: 76%

SMILES: C=CC(=O)Nc1cc(-n2c(=O)ccc3cnc4ccc(-c5ccc(NS(C)(=O)=O)cc5)cc4c32)ccc1C
- % of control [6]: 98%

SMILES: N#Cc1cccc(-c2c[nH]c3ncnc(N4CCOCC4)c23)c1
- % of inhibition [7]: 17%
- % of control [8]: 100%

SMILES: CN(C)CCOc1ccc(-c2nc(-c3ccncc3)c(-c3ccc4c(c3)CC/C4=N\O)[nH]2)cc1
- % of control [9]: 84%

SMILES: CNC(=O)Nc1ccc(-c2nc(N3CC4CCC(C3)O4)c3cnn(C4CCC5(CC4)OCCO5)c3n2)cc1
- % of control [10]: 16%
